pEC50: −log10 of the molar value. Where two headings read alike, the source gives them in different places.
Key:
[1] = tested on: tetanus toxoid-specific IgG; design: species or system Balb/c mice; settings: mouse, in vivo, sc
TNF-α = assay: Induction of cytokines in vitro: TNF-α release in human whole blood (ELISA); format: cell-based; settings: read-out: TNFa Stimulation Value
Procedure: The ability to trigger a stimulatory response in macrophages is likely a necessary characteristic of molecules with imunoadjuvant properties. Therefore, the ability of compounds to stimulate release of TNF-α and other cytokines from immune cells is tested as an indication of their ability to stimulate an immune response, which may result in adjuvant activity.
The most readily available human system to test compound activity on monocytes/macrophages is in whole blood. Various concentrations of compounds of the invention were added as 10×stocks in 50 μl of 5% dextrose followed by 50 μl of 5% dextrose into 400 μl of heparinized whole blood obtained from normal volunteers (18-51 years old; 110-230 lb) into the wells of plastic assay plates, for a total volume of 500 μl/well (final concentration of whole blood was 80%). The 10×stocks were made by dissolving compounds to 1 mM in water and sonicating them for 2 minutes in an ice bath. The compounds were then brought to 10× in 5% dextrose. After a 3-hour incubation with gentle shaking at 37° C. in a 5% CO2 atmosphere, the assay plates were centrifuged at 1000×g for 10 minutes at 4° C. and plasma was drawn off and frozen at −80° C. Plasma samples were analyzed for TNF-α by ELISA (R & D Systems, Minneapolis, Minn.). Each assay point was tested in triplicate.
The stimulatory value is the compound concentration needed to stimulate TNF-α release equal to half the release obtained from the same whole blood sample with 10 ng/ml of LPS.

| SMILES | Mean concentration of tetanus toxoid-specific IgG (6 mice/group) [1] | pEC50 (TNF-α; Homo sapiens, 3 h) | pEC50 (TNF-α; compound concentration needed to stimulate TNF-α release equal to half the release obtained with 10 ng/ml LPS, 80% heparinized human whole blood, 3-hour incubation, 37° C.) |
| --- | --- | --- | --- |
| CCCCCCCCCCCCC/C=C/[C@@H](OC(=O)CCCCCCCCCCC)[C@H](COP(=O)([O-])OCCNC(=O)NCCOP(=O)([O-])OC[C@H](NC(=O)CCCCCCCCCCCCC)[C@@H](/C=C/CCCCCCCCCCCCC)OC(=O)CCCCCCCCCCC)NC(=O)CCCCCCCCCCCCC.[Na+].[Na+] [ER-805270] | 1995 µg/mL | – | – |
| CCCCCCCCCCCCC(=O)O[C@H](CCOP(=O)([O-])OCCNC(=O)NCCOP(=O)([O-])OCC[C@@H](OC(=O)CCCCCCCCCCCC)C(CCCCCCCCCC)OC(=O)CCCCCCCCCC)C(CCCCCCCCCC)OC(=O)CCCCCCCCCC.[Na+].[Na+] (stereo partly shown) [ER-805271] | 2010 µg/mL | 5.80 | – |
| CCCCCCCCCCCCCC(=O)N[C@H](CCCC(CCCCCCCC)OC(=O)CCCCCCCCCCCC)COP(=O)(O)OCCNC(=O)NCCOP(=O)(O)OC[C@@H](CCCC(CCCCCCCC)OC(=O)CCCCCCCCCCCC)NC(=O)CCCCCCCCCCCCC (stereo partly shown) [ER-805517] | – | 7.15 | – |
| CCCCCCCCCCCCC(=O)N[C@@H](CCOP(=O)([O-])OCCNC(=O)NCCOP(=O)([O-])OCC[C@H](NC(=O)CCCCCCCCCCCC)C(CCCCCCCCCC)OC(=O)CCCCCCCCCC)C(CCCCCCCCCC)OC(=O)CCCCCCCCCC.[Na+].[Na+] (stereo partly shown) [ER-805274] | 3218 µg/mL | 7.85 | – |
| CCCCCCCCCCCCCC(=O)NC(CCCCCCCCC)CC[C@@H](COP(=O)(O)OCCNC(=O)NCCOP(=O)(O)OC[C@H](CCC(CCCCCCCCC)NC(=O)CCCCCCCCCCCCC)OC(=O)CCCCCCCCCCCCC)OC(=O)CCCCCCCCCCCCC (stereo partly shown) [ER-805328] | – | 6.69 | – |
| CCCCCCCCCCCCC/C=C/[C@@H](OC(=O)CCCCCCCCCCC)[C@H](COP(=O)(O)OCCNC(=O)NCCOP(=O)(O)OC[C@H](NC(=O)CCCCCCCCCCCCC)[C@@H](/C=C/CCCCCCCCCCCCC)OC(=O)CCCCCCCCCCC)NC(=O)CCCCCCCCCCCCC (single isomer, unassigned) [ER-805270] | – | – | < 5.00 |
| CCCCCCCCCCCCCC(=O)N[C@@H](COP(=O)([O-])OCCNC(=O)NCCOP(=O)([O-])OC[C@H](NC(=O)CCCCCCCCCCCCC)[C@H](CCCCCCCCCCC)OC(=O)CCCCCCCCCCC)[C@H](CCCCCCCCCCC)OC(=O)CCCCCCCCCCC.[Na+].[Na+] [ER-804874] | 5640 µg/mL | 8.05 | – |
